Earlier results in paper PMC3468400, “Pharmacokinetic profiles of artesunate following multiple intravenous doses of 2, 4, and 8 mg/kg in healthy volunteers: Phase 1b study” (Malaria Journal, 2012).

Test system: severe falciparum malaria
Settings: AQUAMAT, cited from earlier work

For C[C@H]1[C@H](OC(=O)CCC(=O)O)O[C@@H]2O[C@@]3(C)CC[C@H]4[C@H](C)CC[C@@H]1[C@@]24OO3 [AS, 4-(10’dihydro-artemisinin-oxymethyl) succinate], the mortality rate (severe malaria patients, intravenous treatment) is given as 8.5% and the “reduction of mortality versus quinine” value is given as 22.5%.
